Columns and labels:
AMPK = assay: pACC HTRF (Cisbio) assay, phosphorylation of ACC in U-2 OS Flp-In T-REx cells; format: cell-based; conditions: for phosphorylation of the AMPK substrate ACC (ratio 665/620 nm): varying concentrations, 30 mins at 37 C
Description: U-2 OS cells were treated with varying concentrations of compound 1 for 30 mins at 37 C. Phosphorylation of ACC was assessed using the HTRF Cisbio (pACC kit).
U-2 OS cells were treated with varying concentrations of compound 1 for 30 mins at 37 C in the presence or absence of 11 μM of compound 2. Phosphorylation of ACC was assessed using the HTRF Cisbio (pACC kit).
First, we monitored the activation of AMPK within cells using the indirect activator, compound 1. U-2 OS Flp-In T-REx cells were seeded at 50 K in a 96-well plate and left overnight at 37 C in DMEM GlutaMAX (Thermo Fisher Scientific) supplemented with 10% (vol/vol) FBS and 100 U/ml penicillin G, and 100 μg/ml streptomycin. Cells were treated for 30 mins with varying concentrations of Compound 1 in media lacking FBS and then cells were lysed in 50 μl of Cisbio lysis buffer #1 supplemented with blocking solution as per the manufacturer's protocol (Cisbio). Cells were lysed for 30 mins at room temperature before 16 μl of lysate was incubated with 4 μl of the HTRF antibodies (1:40 dilution of the acceptor and donor (p)ACC antibodies, as per the manufacturers protocol). Lysates were incubated overnight with the antibodies before the 665 nm/620 nm ratio was determined using a MolecularDevices i3 plate reader (with a HTRF cartridge add-on).
To investigate whether treatment of compound 1 with our new identified direct benzocoumarin AMPK activator, compound 2, could improve the activation of AMPK, cells were treated for 30 mins with varying concentrations of compound 1 in the presence or absence of 11 μM compound 2. Cells were cultured and analysed according to example 1.

AMPK β1 WT = assay: pACC HTRF assay in AMPKβ1/β2 double knockout U-2 OS cells stably expressing β1 WT; format: cell-based, human
Description: (§1) The β1 WT or β1 S108A mutant were stably expressed in AMPKβ1β2 double knockout cells and were treated with varying concentrations of compound 1 for 30 mins at 37 C in the presence or absence of 11 μM of compound 2. Phosphorylation of ACC was assessed using the HTRF Cisbio (pACC kit).
(§2) AMPKβ1/β2 double knockout U-2 OS Flp-In™ T-Rex™ cell lines were generated by Horizon Discovery (Cambridge, UK). Cells were genotyped and analysed by Western blotting to confirm that there was a complete knockout of AMPKβ1/β2. We took these AMPKβ1/β2 double knockout cells, and re-introduced the expression of human β1 wild-type (WT) or a β1 Serine 108 to alanine mutation (S108A). This was achieved using the Flp-In™ system (Invitrogen) present in this cell line and stable cells expressing β1 WT or a β1 S108A mutant were generated according to the manufacturers' protocols. Re-expression of the β1 subunit was confirmed by Western blot analysis.
(§3) Cells stably expressing β1 WT or a β1 S108A mutant were treated with varying concentrations of Compound 1 in the presence or absence of a fixed concentration (11 μM) of compound 2. Cells lysates were subjected to the pACC HTRF (Cisbio) assay to determine the level of phosphorylation of the AMPK substrate, ACC, in cell lysates, as in example 1.

[1] = test system: AMPK complexes containing the β2 isoform subunit; assay: pACC HTRF assay in AMPKβ1/β2 double knockout U-2 OS cells stably expressing β2 WT isoform; format: cell-based, human; conditions: fixed 11 μM compound 2 with varying concentrations of compound 1
Description: U-2 OS cells AMPKβ1β2 double knockout cells stably expressing AMPK β2 were treated with varying concentrations of compound 1 for 30 mins at 37 C in the presence or absence of 11 μM of compound 2. Phosphorylation of ACC was assessed using the HTRF Cisbio (pACC kit).
We took AMPKβ1/β2 double knockout cells, and re-introduced the expression of the human β2 WT isoform. […] Cells stably expressing β2 WT were treated with varying concentrations of Compound 1 in the absence or presence of a fixed concentration (11 μM) of compound 2. Cell lysates were subjected to the pACC HTRF (Cisbio) assay to determine the level of phosphorylation of the AMPK substrate, ACC, in cell lysates, as in Example 1. […] Direct activation AMPK by binding to the ADaM site was impaired or abolished in β2-containing complexes in vitro and in cells. The inability of compound 2 to improve the activation of AMPK by compound 1, was consistent with the knowledge we have generated showing the compound 2 binds to the ADaM-site of AMPK. […] Low doses of compound 1 in combination with compound 2 could activate AMPK.

[2] = test system: ADaM-binding site AMPK mutant (β1 S108A); assay: pACC HTRF assay in AMPKβ1/β2 double knockout U-2 OS cells stably expressing β1 S108A mutant; format: cell-based, human; conditions: fixed 11 μM compound 2 with varying concentrations of compound 1
Description: as §1, §2, §3

Row | SMILES | phosphorylation of the AMPK substrate ACC (ratio 665/620 nm) (AMPK) | phosphorylation of the AMPK substrate ACC (ratio 665/620 nm) (AMPK; listed as compound 1) | pACC (fold increase in activation) (AMPK β1 WT; cells stably expressing β1 WT, varying concentrations, 30 mins at 37 C) | effect on the dose-response curve of compound 1 (pACC) [1] | effect on the dose-response curve of compound 1 (pACC) (AMPK; fixed 11 μM compound 2 with varying concentrations of compound 1, 30 mins) | effect on the dose-response curve of compound 1 (pACC) (AMPK β1 WT; β1 WT cells, fixed 11 μM compound 2 with varying concentrations of compound 1) | effect on the dose-response curve of compound 1 (pACC) [2]
1 | O=c1oc2cc(O)ccc2c2ccccc12 [Compound 1, 3-hydroxy-6H-benzo[c]chromen-6-one] | increased the phosphorylation of the AMPK substrate, ACC, in a dose-dependent manner | increases the phosphorylation of the AMPK substrate, ACC, in a dose-dependent manner | able to dose-dependently increase pACC | – | – | – | –
2 | COc1cc(O)c2c(c1)c(=O)oc1cc(O)ccc12 [Compound 2, 3,10-Dihydroxy-8-methoxy-6H-benzo[c]chromen-6-one] | – | – | – | did not improve the dose-response curve | left-shift in the dose-response curve | capable of causing a left-shift and improvement | not able to cause a left-shift and improvement
